Among the data in PubChem BioAssay (NCI) are GI50 and TGI values, retold here.

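Grown in 96-well plates, cells were treated for 48 hours with each compound at five concentrations. Insufficient inhibition: endpoint recorded as highest concentration tested. GI50: concentration for 50% inhibition of growth. TGI marks complete inhibition of growth.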

The subject of the first assay is OVCAR-5 ovarian. The experiment in a line: NCI anticancer screen, dose series, 48 h.
As to `CN(C(=O)c1ccc(C(F)(F)F)cc1)c1ccc(Oc2ccc3c(c2)cc(C(=O)N2CCN(Cc4ccc(OC(F)F)cc4)CC2)n3C)nc1`, the GI50 was over 100 µM and the TGI was over 100 µM.

In the case of `Cc1cc(-c2ccc3nc(C4CCOCC4)n(CCOC(F)(F)F)c3c2)cn(C)c1=O`, the GI50 is 0.552 µM and the TGI is over 56.4 µM.

Take `COc1cc(/C=C2\CN(S(=O)(=O)c3ccccc3)C/C(=C\c3cc(CN4CCCC4)c(O)c(OC)c3)C2=O)cc(CN2CCCC2)c1O`: the GI50 was 1.91 µM and the TGI worked out at 3.86 µM.

As for `CN1CCN(CCCn2c(=O)c3sc4ncccc4c3n3nnc(-c4ccccc4)c23)CC1`, the GI50 was 8.85 µM and the TGI was 16.9 µM.

On to `NC1(C(=O)OCc2ccccc2)CCCC1`, for which the TGI is 85.7 µM.

Regarding `O=C(/C=C/c1ccc(Cl)cc1)c1ccc(Nc2ccnc3cc(Cl)ccc23)cc1`, the GI50 was 22.1 µM and the TGI was determined as 68.5 µM.

For `CCCCCCCC(=O)SCC/C=C/[C@@H]1CC(=O)NCc2cc(ccn2)C2=N[C@@](C)(CS2)C(=O)N[C@@H](C(C)C)C(=O)O1`, the GI50 is under 0.0113 µM and the TGI was over 33.3 µM.

`COc1cc(C2c3cc4c(cc3OC(C)(O)C2C)OCO4)cc(OC)c1OC` (stereo not given) came in with a TGI of over 100 µM.

`N#CC(C#N)=CNC(N)=S` displayed a TGI of over 100 µM.

Take `C[C@@H]1CCC2[C@@H](C)[C@@H](OCC(CO[C@H]3OC4O[C@@]5(C)CC[C@H]6[C@H](C)CCC([C@H]3C)[C@@]46OO5)OC(=O)CCC(=O)O)OC3O[C@@]4(C)CC[C@@H]1[C@]32OO4` (stereo not given in full): the GI50 was under 0.01 µM and the TGI was 14.7 µM.

`COc1cc(OC)cc(-c2cc(=O)c3c(OC)c(OC)c(OC)c(OC)c3o2)c1`: the TGI is over 100 µM.

For `O=C1OC(O)[C@@H]2[C@H]1[C@H]1CC[C@@H]2O1` (stereo not given in full), the GI50 was 57.3 µM and the TGI was over 100 µM.

Consider `O=C1c2cc3c(cc2-c2c1c1ccc(F)cc1c(=O)n2CCCNCCO)OCO3`, for which the GI50 is 0.242 µM and the TGI came to 1.23 µM.

Turning to `C=C1C(=O)O[C@H]2[C@H]1CC/C(COC(=O)c1c[nH]c3ccccc13)=C\CC[C@@]1(C)O[C@@H]21`, the GI50 was 0.405 µM and the TGI is 2.1 µM.

`CC(=O)[C@@]12O[C@@H]1CC1C3CCC4=CC(O)CCC4(C)C3CCC12C` (stereo not given in full): the GI50 is 27.9 µM and the TGI was determined as 88.3 µM.

Turning to `CCN1CCN(c2nc(C)cc(N(CCNc3ccnc4cc(Cl)ccc34)Cc3ccc4c(c3)OCO4)n2)CC1`, the GI50 is 3.58 µM and the TGI was 13.6 µM.

With `COc1ccc(-c2nnc(COc3ccc(C(=O)/C=C/c4ccco4)cc3)o2)cc1`, the GI50 is 5.85 µM and the TGI turned out to be 19.1 µM.

Regarding `Cc1ccccc1S(=O)(=O)OC1NS(=O)(=O)c2ccccc21` (stereo not given), the TGI was over 100 µM.

On to `COc1cc2c3c(n(C)c(=O)c2cc1OC)-c1cc2c(cc1/C3=C\CCCN)OCO2`, for which the GI50 is 3.75 µM and the TGI was determined as 26.2 µM.

As for `Cc1ccc(S(=O)(=O)Nc2ccccc2C(=O)c2ccc(C)c(C)c2)cc1`, the TGI is over 100 µM.

Turning to `OC(c1nc2ccccc2[nH]1)C(O)C(O)C(O)c1nc2ccccc2[nH]1` (stereo not given), the TGI is over 100 µM.

As for `COc1cc2c3c(n(C)c(=O)c2cc1OC)-c1cc2c(cc1/C3=C\CCN)OCO2`, the GI50 was 0.255 µM and the TGI worked out at 3.7 µM.

A further assay relates to 786-0 renal. The experiment in a line: NCI anticancer screen, dose series, 48 h.
With `CN(C(=O)c1ccc(C(F)(F)F)cc1)c1ccc(Oc2ccc3c(c2)cc(C(=O)N2CCN(Cc4ccc(OC(F)F)cc4)CC2)n3C)nc1`, the GI50 is over 100 µM and the TGI was over 100 µM.

Regarding `Cc1cc(-c2ccc3nc(C4CCOCC4)n(CCOC(F)(F)F)c3c2)cn(C)c1=O`, the GI50 was 1.03 µM.

As to `COc1cc(/C=C2\CN(S(=O)(=O)c3ccccc3)C/C(=C\c3cc(CN4CCCC4)c(O)c(OC)c3)C2=O)cc(CN2CCCC2)c1O`, the GI50 was 1.86 µM and the TGI amounted to 4.32 µM.

With `CN1CCN(CCCn2c(=O)c3sc4ncccc4c3n3nnc(-c4ccccc4)c23)CC1`, the GI50 is 7.39 µM and the TGI came out at 14.5 µM.

`NC1(C(=O)OCc2ccccc2)CCCC1` showed a TGI of 42.8 µM.

Turning to `O=C(/C=C/c1ccc(Cl)cc1)c1ccc(Nc2ccnc3cc(Cl)ccc23)cc1`, the GI50 is 38.1 µM and the TGI is over 100 µM.

Take `CCCCCCCC(=O)SCC/C=C/[C@@H]1CC(=O)NCc2cc(ccn2)C2=N[C@@](C)(CS2)C(=O)N[C@@H](C(C)C)C(=O)O1`: the GI50 was 0.0291 µM and the TGI was over 33.3 µM.

`COc1cc(C2c3cc4c(cc3OC(C)(O)C2C)OCO4)cc(OC)c1OC` (stereo not given) had a TGI of over 100 µM.

As to `N#CC(C#N)=CNC(N)=S`, the TGI is over 100 µM.

`C[C@@H]1CCC2[C@@H](C)[C@@H](OCC(CO[C@H]3OC4O[C@@]5(C)CC[C@H]6[C@H](C)CCC([C@H]3C)[C@@]46OO5)OC(=O)CCC(=O)O)OC3O[C@@]4(C)CC[C@@H]1[C@]32OO4` (stereo not given in full): the GI50 is under 0.0151 µM and the TGI is 17.3 µM.

In the case of `COc1cc(OC)cc(-c2cc(=O)c3c(OC)c(OC)c(OC)c(OC)c3o2)c1`, the TGI is over 100 µM.

In the case of `O=C1OC(O)[C@@H]2[C@H]1[C@H]1CC[C@@H]2O1` (stereo not given in full), the GI50 is over 100 µM and the TGI is over 100 µM.

With `O=C1c2cc3c(cc2-c2c1c1ccc(F)cc1c(=O)n2CCCNCCO)OCO3`, the GI50 is 0.0335 µM and the TGI amounted to 0.776 µM.

Regarding `C=C1C(=O)O[C@H]2[C@H]1CC/C(COC(=O)c1c[nH]c3ccccc13)=C\CC[C@@]1(C)O[C@@H]21`, the GI50 is 0.326 µM and the TGI was found to be 1.13 µM.

Turning to `CC(=O)[C@@]12O[C@@H]1CC1C3CCC4=CC(O)CCC4(C)C3CCC12C` (stereo not given in full), the GI50 is over 100 µM and the TGI was over 100 µM.

With `CCN1CCN(c2nc(C)cc(N(CCNc3ccnc4cc(Cl)ccc34)Cc3ccc4c(c3)OCO4)n2)CC1`, the GI50 was 1.54 µM and the TGI worked out at 3.08 µM.

Compound `O=C(/C=C\c1ccc(Cl)c(Cl)c1)c1ccc(Cl)cc1Cl` displayed a TGI of 39.6 µM.
